Measured values taken from ChEMBL document CHEMBL5120980, “Stereoisomers of an Aryl Pyrazole Glucocorticoid Receptor Agonist Scaffold Elicit Differing Anti-inflammatory Responses” (ACS Med Chem Lett, 2022).

Key:
Glucocorticoid receptor [1] = biological target: T1, Glucocorticoid receptor (Rattus norvegicus, UniProt P06536); assay: Agonist activity at glucocorticoid receptor in rat INS-1 832/13 cells transfected with CCL2-promoter luciferase plasmid construct assessed as reduction in IL-1 beta induced inflammation by luciferase reporter gene assay; type: cell-based
T1 sequence (P06536 whole entry): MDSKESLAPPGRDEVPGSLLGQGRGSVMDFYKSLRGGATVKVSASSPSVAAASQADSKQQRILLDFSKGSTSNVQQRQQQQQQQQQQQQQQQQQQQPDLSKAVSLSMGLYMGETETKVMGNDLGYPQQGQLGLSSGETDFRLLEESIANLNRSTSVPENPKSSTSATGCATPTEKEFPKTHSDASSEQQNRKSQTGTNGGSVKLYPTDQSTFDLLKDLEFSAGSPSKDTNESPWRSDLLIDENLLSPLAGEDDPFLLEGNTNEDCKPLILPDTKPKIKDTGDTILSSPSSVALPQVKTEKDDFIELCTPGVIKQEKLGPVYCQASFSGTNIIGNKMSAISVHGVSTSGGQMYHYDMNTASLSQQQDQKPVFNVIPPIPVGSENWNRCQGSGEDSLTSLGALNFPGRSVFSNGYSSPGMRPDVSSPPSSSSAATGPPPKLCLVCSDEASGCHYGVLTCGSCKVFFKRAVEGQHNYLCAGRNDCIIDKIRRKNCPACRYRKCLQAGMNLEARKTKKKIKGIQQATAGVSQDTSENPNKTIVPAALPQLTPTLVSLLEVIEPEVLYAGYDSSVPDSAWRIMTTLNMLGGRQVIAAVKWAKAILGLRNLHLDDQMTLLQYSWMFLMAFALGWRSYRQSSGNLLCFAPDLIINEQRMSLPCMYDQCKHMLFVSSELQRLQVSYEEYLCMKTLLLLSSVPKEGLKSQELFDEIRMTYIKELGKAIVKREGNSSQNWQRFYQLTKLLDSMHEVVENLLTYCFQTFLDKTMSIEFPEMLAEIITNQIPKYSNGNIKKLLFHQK

Glucocorticoid receptor [2] = biological target: T1, Glucocorticoid receptor; assay: Agonist activity at glucocorticoid receptor in rat INS-1 832/13 cells transfected with 3XGRE-promoter luciferase plasmid construct assessed as induction of receptor transactivation by luciferase reporter gene assay; type: cell-based

Row | Structure (SMILES) | IC50 (Glucocorticoid receptor [1]) | EC50 (Glucocorticoid receptor [2])
1 | C[C@]12Cc3cnn(-c4ccc(F)cc4)c3C=C1CCC[C@@H]2[C@H](O)c1ccccc1 | 3980 nM | 25.1 nM
2 | C[C@]12Cc3cnn(-c4ccc(F)cc4)c3C=C1CCC[C@@H]2CO | 5.01 nM | 31.6 nM
3 | C[C@]12Cc3cnn(-c4ccc(F)cc4)c3C=C1CCC[C@@H]2[C@H](O)c1c(F)c(F)c(F)c(F)c1F | 25.1 nM | 2000 nM
4 | C[C@]12Cc3cnn(-c4ccc(F)cc4)c3C=C1CCC[C@@H]2[C@@H](O)c1c(F)c(F)c(F)c(F)c1F | 31.6 nM | 251 nM
5 | CC(C)[C@@H](O)[C@H]1CCCC2=Cc3c(cnn3-c3ccc(F)cc3)C[C@@]21C | 158 nM | 1580 nM
6 | C[C@]12Cc3cnn(-c4ccc(F)cc4)c3C=C1CCC[C@@H]2[C@@H](O)c1ccccc1 | 20 nM | 63.1 nM
7 | CC(C)[C@H](O)[C@H]1CCCC2=Cc3c(cnn3-c3ccc(F)cc3)C[C@@]21C | 0.631 nM | 1580 nM

Other lines, results leading:

Row | IC50 (Glucocorticoid receptor [1]) | EC50 (Glucocorticoid receptor [2]) | Structure (SMILES)
8 | 20 nM | 10000 nM | CC[C@H](O)[C@H]1CCCC2=Cc3c(cnn3-c3ccc(F)cc3)C[C@@]21C
9 | 15.8 nM | 2510 nM | CC[C@@H](O)[C@H]1CCCC2=Cc3c(cnn3-c3ccc(F)cc3)C[C@@]21C
10 | 63.1 nM | 2510 nM | C[C@H](O)[C@H]1CCCC2=Cc3c(cnn3-c3ccc(F)cc3)C[C@@]21C
11 | 2000 nM | 0.501 nM | C[C@]12Cc3cnn(-c4ccc(F)cc4)c3C=C1CCC[C@@H]2[C@H](O)C1CC1
12 | 0.316 nM | 31.6 nM | C[C@@H](O)[C@H]1CCCC2=Cc3c(cnn3-c3ccc(F)cc3)C[C@@]21C
13 | 398 nM | 3160 nM | C[C@]12Cc3cnn(-c4ccc(F)cc4)c3C=C1CCC[C@@H]2[C@@H](O)C1CCCC1
14 | 31.6 nM | 1000 nM | C[C@]12Cc3cnn(-c4ccc(F)cc4)c3C=C1CCC[C@@H]2[C@@H](O)C1CC1
